Measurements taken from BindingDB's records for doi:10.3109/14756366.2012.763163 (Atatürk University, 2014).
Where a name gives a salt, the structure may show the parent alone.

Experiments:
Carbonic anhydrase 1 = Carbonic anhydrase 1 (Homo sapiens, UniProt P00915); assay: Esterase Activity Assay; settings: pH 7.4; 25 °C
Method: (§1) CA activity was assayed by following the change in absorbance at 348 nm of 4-nitrophenylacetate (NPA) to 4-nitrophenylate ion over a period of 3 min at 25 °C using a spectrophotometer (Shimadzu, UVmini-1240 UV-VIS spectrophotometer) according to the method described by Verpoorte et al.37 The enzymatic reaction contained 1.4mL 0.05M Tris-SO4 buffer (pH 7.4), 1mL 3mM 4-NPA, 0.5mL H2O and 0.1mL enzyme solution (total volume, 3.0 mL). A reference measurement was obtained bypreparing the mixture without the enzyme solution. All measurements were recorded in triplicate.

Carbonic anhydrase 2 = Carbonic anhydrase 2 (Homo sapiens, UniProt P00918); assay: Esterase Activity Assay; settings: pH 7.4; 25 °C
Method: as §1

Chain of Carbonic anhydrase 1 (P00915 whole entry): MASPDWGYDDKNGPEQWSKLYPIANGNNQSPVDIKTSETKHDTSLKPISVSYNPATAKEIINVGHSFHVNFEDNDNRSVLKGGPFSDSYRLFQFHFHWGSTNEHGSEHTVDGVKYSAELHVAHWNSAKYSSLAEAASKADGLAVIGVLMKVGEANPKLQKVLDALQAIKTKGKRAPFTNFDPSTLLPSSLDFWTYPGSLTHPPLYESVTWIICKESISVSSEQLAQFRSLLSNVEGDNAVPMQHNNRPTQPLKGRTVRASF

Structure (SMILES)	Ki (Carbonic anhydrase 1)	Ki (Carbonic anhydrase 2)
COc1ccc(C(N)c2cccc(OC)c2OC)cc1OC (centres undefined) [(2,3-Dimethoxyphenyl)(3,4-dimethoxyphenyl)methanamine hydrochloride (25)]	66.9 µM	73.3 µM
COc1ccc(C(N)c2ccc(OC)c(OC)c2)c(OC)c1 (centres undefined) [(2,4-Dimethoxyphenyl)(3,4-dimethoxyphenyl)methanamine hydrochloride (23)]	36 µM	34.3 µM
COc1ccc(C(N)c2cc(OC)c(OC)cc2C)cc1OC (centres undefined) [(4,5-Dimethoxy-2-methylphenyl)(3,4-dimethoxyphenyl)methanamine hydrochloride (24)]	39.5 µM	47.6 µM
COc1ccc(C(NS(C)(=O)=O)c2cccc(OC)c2OC)cc1OC (centres undefined) [N-((2,3-dimethoxyphenyl)(3,4-dimethoxyphenyl)methyl)methanesulfonamide (28)]	3.68 µM	9.23 µM
COc1ccc(C(NS(C)(=O)=O)c2cc(OC)c(OC)cc2C)cc1OC (centres undefined) [N-((4,5-dimethoxy-2-methylphenyl)(3,4-dimethoxyphenyl)methyl)methane sulfonamide (27)]	48.6 µM	18.9 µM
COc1ccc(C(NS(C)(=O)=O)c2ccc(OC)c(OC)c2)cc1OC [N-(bis(3,4-dimethoxyphenyl)methyl)methanesulfonamide (26)]	25.6 µM	18.1 µM
COc1ccc(C(N)c2ccc(OC)c(OC)c2)cc1OC [bis(3,4-dimethoxyphenyl)methanamine hydrochloride (22)]	13.7 µM	15.6 µM
